One series deals with diabetic rats. Particulars: cited from earlier work.
Series [1] in a line: Ocular tissue concentration study at twelve weeks following a single intravitreal dose in pigmented rabbits. Conditions: both sexes, Dutch-belted, rabbit, other: intravitreal, single bilateral intravitreal dose of suspension, Day 86. The series is classed as in vivo. How it is done:
An aqueous suspension pharmaceutical composition of milled N—[(R)-1-[(S)-1-(4-aminomethyl-benzylcarbamoyl)-2-phenyl-ethylcarbamoyl]-2-(4-ethoxy-phenyl)-ethyl]-benzamide hydrochloride was prepared according to Example B1. The resulting nominal 50 mg/mL suspension was diluted with the milling vehicle (prepared according to Example B1) into dosing formulations for intravitreal injection. Five experimentally naïve male and female Dutch-belted rabbits, approximately 5 months old and weighing 1.6 to 2.2 kilograms at the outset of the study were assigned to treatment groups as shown in Table iv. [table] Animals were administered bilateral intravitreal doses of the suspension formulations once on Day 1. On Day 86, the vitreous humors and retina (with choroid) tissues were analysed for active ingredient concentration.

Like-named read-outs stand apart in the source and are kept apart here.

For the molecule `N=C(N)c1ccc(CNC(=O)c2cnn(Cc3ccccc3)c2)cc1` [ASP-440], in the series with diabetic rats, the “retinal blood flow abnormalities” value is on record as “ameliorated” and the retinal vascular permeability entry is “ameliorated”.

Regarding `CCOc1ccc(C[C@@H](NC(=O)c2ccccc2)C(=O)N[C@@H](Cc2ccccc2)C(=O)NCc2ccc(CN)cc2)cc1` [active ingredient, N—[(R)-1-[(S)-1-(4-aminomethyl-benzylcarbamoyl)-2-phenyl-ethylcarbamoyl]-2-(4-ethoxy-phenyl)-ethyl]-benzamide], the concentration at 86 day is 1620 ng/g in series [1] (retina (with choroid), 15 μg/eye, low-dose group (15 μg/eye), read-out: average retina (with choroid) tissue concentration); 44500 ng/g in series [1] (retina (with choroid), 150 μg/eye, high-dose group (150 μg/eye), read-out: average retina (with choroid) tissue concentration); 0.216 to 935 ng/mL in series [1] (vitreous humor, 15 μg/eye, low-dose group (15 μg/eye), read-out: vitreous humor concentrations (range)); 27800 ng/mL in series [1] (vitreous humor, 150 μg/eye, high-dose group (150 μg/eye), read-out: average vitreous humor concentration); 2500 to 56500 ng/mL in series [1] (vitreous humor, 150 μg/eye, high-dose group (150 μg/eye), read-out: vitreous humor concentrations (range)).

These data come from patent US9849100B2, “Pharmaceutical compositions suitable for parenteral administration comprising aqueous suspensions of benzylamine derivatives having low solubilities” (KalVista Pharmaceuticals Limited, priority 2013, dated 2017).
